ChEMBL document CHEMBL5050837, “Rictor-targeted therapy in the management of brain metastases” (2021)
The source made the active and inactive calls. No cut-off for these calls is given here.

Columns and labels:
HCC827 [1] = assay: Induction of apoptosis in RICTOR-upregulated human HCC827 cells; assay type: functional, cell-based
HCC827 [2] = assay: Induction of apoptosis in erlotinib-resistant human HCC827 cells with RICTOR-knockdown; assay type: functional, cell-based
PC-9 [3] = assay: Antiproliferative activity against doxycycline-induced RICTOR-knockdown human PC-9 cells; assay type: functional, cell-based
HCC827 [4] = assay: Antiproliferative activity against doxycycline-induced RICTOR-knockdown human HCC827 cells; assay type: functional, cell-based
NCI-H23 [5] = assay: Inhibition of RICTOR-amplified human NCI-H23 cells migration; assay type: functional, cell-based
NCI-H1703 [6] = assay: Inhibition of RICTOR-amplified human NCI-H1703 cells invasion; assay type: functional, cell-based
NCI-H23 [7] = assay: Inhibition of RICTOR-amplified human NCI-H23 cells invasion; assay type: functional, cell-based
NCI-H1703 [8] = assay: Inhibition of RICTOR-amplified human NCI-H1703 cells migration; assay type: functional, cell-based
PC-9 [9] = assay: Down-regulation of Axl in RICTOR-knockdown human PC-9 cells assessed as half-life of Axl; assay type: functional, cell-based
HCC827 [10] = assay: Antiproliferative activity against erlotinib-resistant doxycycline-induced RICTOR-knockdown human HCC827 cells assessed as fold decrease in compound IC50; assay type: functional
HCC827 [11] = assay: Antitumor activity against erlotinib-resistant doxycycline-induced RICTOR-knockdown human HCC827 cells xenografted in mouse assessed as inhibition of tumor growth; assay type: functional, cell-based
HCC827 [12] = assay: Antitumor activity against erlotinib-resistant doxycycline-induced RICTOR-knockdown human HCC827 cells xenografted in mouse assessed as decrease in Axl expression; assay type: functional, cell-based
HCC827 [13] = assay: Inhibition of RICTOR-upregulated human HCC827 cell migration; assay type: functional, cell-based
NCI-H23 [14] = assay: Antitumor activity against RICTOR-knockdown human NCI-H23 cells xenografted in mouse assessed as inhibition of tumor growth; assay type: functional
HCC827 [15] = assay: Inhibition of RICTOR-upregulated human HCC827 cell invasion; assay type: functional, cell-based

Compound | Activity (PC-9 [3]) | Activity (HCC827 [4]) | inhibition (NCI-H23 [5]) | inhibition (NCI-H1703 [6]) | inhibition (NCI-H23 [7]) | inhibition (NCI-H1703 [8]) | also measured
C=CC(=O)Nc1cc(Nc2nccc(-c3cn(C)c4ccccc34)n2)c(OC)cc1N(C)CCN(C)C | Active | – | – | – | – | – | Activity (HCC827 [1]): inactive; Activity (HCC827 [2]): Active
CN(C)C/C=C/C(=O)Nc1cc2c(Nc3ccc(F)c(Cl)c3)ncnc2cc1O[C@H]1CCOC1 | – | Active | – | – | – | – | –
CNC(=O)c1cccc(-c2ccc3c(N4CCOC[C@@H]4C)nc(N4CCOC[C@@H]4C)nc3n2)c1 | – | – | Active | Active | Active | Active | –
C[C@@H]1C[C@@H]([C@H](O)CC2CC(=O)NC(=O)C2)C(=O)[C@@H](C)C1 | – | – | – | – | – | – | T1/2 (PC-9 [9]): 3.2 h
C#Cc1cccc(Nc2ncnc3cc(OCCOC)c(OCCOC)cc23)c1 [ERLOTINIB] | Active | Active | – | – | – | – | fold change (FC) (HCC827 [10]): 1000; Activity (HCC827 [11]): Active; Activity (HCC827 [12]): Active
CC(C)n1nc(-c2ccc3oc(N)nc3c2)c2c(N)ncnc21 [SAPANISERTIB] | – | – | Active | Active | Active | Active | inhibition (HCC827 [13]): Active; TGI (NCI-H23 [14]): 75%; inhibition (HCC827 [15]): Active
